The test system of one experiment is MAM-treated rats. The following applies: cited from earlier work.
Experiment [1] concerns aged-impaired rats. Put plainly: Radial Arm Maze task, acute brivaracetam or seletracetam (Example 4). The settings on record: rat, in vivo.
Experiment [2] relates to aged-impaired rats. Put plainly: water maze task after chronic treatment (Example 4). It counts as in vivo, rat. The settings on record: brivaracetam 2 mg/kg/day, osmotic mini-pump. The source says:
Another cognitive test that may be used to assess the effects of a test compound on the cognitive impairment of a CNS disorder model animal is the Morris water maze. A water maze is a pool surrounded with a novel set of patterns relative to the maze. […] The subject is trained to locate a submerged escape platform hidden underneath the surface of the pool. During the training trial, a subject is released in the maze (pool) from random starting positions around the perimeter of the pool. The starting position varies from trial to trial. […] After a delay period following the last training trial, a retention test in the absence of the escape platform is given to assess spatial memory. The subject's level of preference for the location of the (now absent) escape platform, as measured by, e.g., the time spent in that location or the number of crossings of that location made by the mouse, indicates better spatial memory, i.e., treatment of cognitive impairment. The preference for the location of the escape platform under different treatment conditions, can then be compared for efficacy of the test compound in treating cognitive impairment associated with CNS disorders.
The radial arm maze experiments used acute administration of seletracetam (0-4 mg/kg), brivaracetam (0-4 mg/kg), or saline vehicle given by intraperitoneal injection (in a volume of 1 ml/kg) 30-40 min prior to test sessions. In the chronic treatment experiment, memory-impaired aged rats were implanted subcutaneously in the intrascapular region with osmotic mini-pumps (ALZET, Durect Corporation, Cupertino, Calif.) with brivaracetam (2 mg/kg/day) or saline vehicle starting two weeks prior to assessment in the water maze.
Rats were trained and tested in a novel water maze environment to assess the effect of drug treatment. The water maze used here was housed in a different building and was surrounded by curtains with a novel set of patterns relative to the maze used for initial assessment of cognitive status. The training protocol consisted of 6 trials per day for 2 days to locate a submerged escape platform. […]

The test system of a further experiment is aged-impaired rats (AI). In kind it is in vivo, rat. The following applies: rat, in vivo. The protocol: FIG. 1 depicts the effects of administering levetiracetam on the spatial memory retention of ten aged-impaired rats (AI) in an eight-arm Radial Arm Maze (RAM) test. Six treatment conditions are employed: vehicle control, levetiracetam (1.25 mg/kg/day), levetiracetam (2.5 mg/kg/day), levetiracetam (5 mg/kg/day), levetiracetam (10 mg/kg/day) and levetiracetam (20 mg/kg/day). In the RAM task used, there is a one-hour delay between presentation of a subset of arms (5 arms available and 3 arms blocked) and completion of the eight-arm win-shift task (eight arms available). Rats are pre-treated 30-40 minutes before daily trials with a one-time drug/control treatment. The number of errors made by the rats during the retention phase is used as a measure of spatial memory retention. Errors are defined as instances when rats enter an arm from which food has already been retrieved in the pre-delay component of the trial or when rats re-visit an arm in the post-delay session that had already been visited. Paired t-tests are used to compare the number of errors between different doses of levetiracetam and vehicle control. […]
A Radial Arm Maze (RAM) behavioral task is one example of a cognitive test, specifically testing spacial memory (Chappell et al. Neuropharmacology 37: 481-487, 1998). The RAM apparatus consists of, e.g., eight equidistantly spaced arms. A maze arm projects from each facet of a center platform. A food well is located at the distal end of each arm. Food is used as a reward. Blocks can be positioned to prevent entry to any arm. Numerous extra maze cues surrounding the apparatus may also be provided. After habituation and training phases, spatial memory of the subjects may be tested in the RAM under control or test compound-treated conditions. As a part of the test, subjects are pretreated before trials with a vehicle control or one of a range of dosages of the test compound. At the beginning of each trial, a subset of the arms of the eight-arm maze is blocked. Subjects are allowed to obtain food on the unblocked arms to which access is permitted during this initial “information phase” of the trial. Subjects are then removed from the maze for a delay period, e.g., a 60 second delay, a 15 minute delay, a one-hour delay, a two-hour delay, a six hour delay, a 24 hour delay, or longer) between the information phase and the subsequent “retention test,” during which the barriers on the maze are removed, thus allowing access to all eight arms. […] The identity and configuration of the blocked arms vary across trials. The number of “errors” the subjects make during the retention test phase is tracked. An error occurs in the trial if the subjects entered an arm from which food had already been retrieved in the pre-delay component of the trial, or if it re-visits an arm in the post-delay session that had already been visited. A fewer number of errors would indicate better spatial memory. The number of errors made by the test subject, under various test compound treatment regimes, can then be compared for efficacy of the test compound in treating cognitive impairment associated with CNS disorders.

The structures appear in SMILES notation.

As to `C#Cc1ccc2c(c1)C(c1ccccc1F)=N[C@H](C)c1c(C(=O)OCC)ncn1-2` [SH-053-2′F-R-CH3], in the experiment with MAM-treated rats (MAM rats, administered systemically or infused into the ventral HPC, to levels of saline-treated rats), the “number of spontaneously active DA neurons in the ventral tegmental area (VTA)” value is reported as “reduces the number of spontaneously active DA neurons”. The “increased locomotor response to amphetamine” value in the experiment with MAM-treated rats (MAM-treated rats) was “reduced”. In addition, in the experiment with MAM-treated rats (saline-treated and MAM-treated animals), the “cortical-evoked responses of HPC neurons” value is “diminished cortical-evoked responses”.

For the compound `CCC[C@@H]1CC(=O)N([C@@H](CC)C(N)=O)C1` [brivaracetam], the “number of errors in the retention phase, effect as a function of dose” value with aged-impaired rats [1] is “significant effect as a function of dose”. Further, in the experiment on aged-impaired rats [2] (14 days, n=3/group, t(2)=10.000, p=0.010), the “spatial bias for the target quadrant compared to the other quadrants (probe test)” value is “significant spatial bias for the target quadrant”. For the same compound, the “time in the target annulus vs vehicle-treated rats” value in the experiment with aged-impaired rats [2] (t(4)=3.109, p=0.036) is reported as “significantly more time in the target annulus”. In the experiment with aged-impaired rats [2] (t(4)=3.881, p=0.018), the “time in the target quadrant vs vehicle-treated rats” value is listed as “significantly more time in the target quadrant”.

With `COc1cc2c(cc1OC)C(=O)C(CC1CCN(Cc3ccccc3)CC1)C2` (stereo not drawn) [donepezil, 2,3-dihydro-5,6-dimethoxy-2-((1-(phenylmethyl)-4-piperidinyl)methyl)-1H-inden-1-one], in the experiment on aged-impaired rats (AI), the “average no. of errors±SEM” value is 2.81±0.43 and the “average no. of errors±standard error of the mean (SEM)” value is 2.88±0.46.

`CC[C@@H](C(N)=O)N1C[C@H](C=C(F)F)CC1=O` [seletracetam]: the “number of errors in the retention phase, effect as a function of dose” value in the experiment with aged-impaired rats [1] is given as “significant effect as a function of dose”.

On to `NC1=N[C@H](O)[C@H]2[C@H]3O[C@]4(O)O[C@@H]([C@@H](O)[C@@]2(N1)[C@@H]4O)[C@]3(O)CO` [tetrodotoxin], for which, in the experiment with MAM-treated rats (rat, in vivo), the “augmented amphetamine-induced locomotor behavior” value was “normalized the augmented amphetamine-induced locomotor behavior” and the “elevated DA neuron population activity” value is “completely reversed the elevated DA neuron population activity”.

Source of the values: patent publication US11160785B2, “Methods and compositions for improving cognitive function” (AgeneBio, Inc., priority 2013, dated 2021).
